One test has as its system HepG2. Description: Cytotoxicity against human HepG2 cells. The class given is functional, cell-based.
A further test deals with BGC-823. Description: Cytotoxicity against human BGC823 cells by MTT assay. The class given is functional, cell-based. For orientation: Formazan colour is commonly taken as a measure of viable cells.
Test [1] deals with MCF7. Description: Cytotoxicity against human MCF7 cells by MTT assay. Type of test: functional, cell-based.
The next test concerns A549. Kind of test: Cytotoxicity against human A549 cells by MTT assay. The class given is functional, cell-based.
Test [2] has as its system PC-3. Kind of test: Cytotoxicity against human PC3 cells by MTT assay. Type of test: functional, cell-based.
For test [3], the system named is MCF7. Kind of test: Ratio of oleanolic acid IC50 to compound IC50 for human MCF7 cells. Type of test: functional.
Test [4] deals with PC-3. Description: Ratio of oleanolic acid IC50 to compound IC50 for human PC3 cells. The class given is functional.
For test [5], the system named is PC-3. Description: Ratio of adriamycin IC50 to compound IC50 for human PC3 cells. The class given is functional.

Activity calls are given as the source filed them. The calls are words filed in the database; no cut-off is given here.

Take `COC(=O)[C@]12CCC(C)(C)C[C@@H]1C1=CC[C@@H]3[C@@]4(C)CC[C@H](N)C(C)(C)[C@@H]4CC[C@@]3(C)[C@]1(C)CC2`: in the test on HepG2, the IC50 (commonly the concentration at which inhibition is half-maximal) was 4 µM.

Take `CC1(C)CC[C@]2(C(=O)O)CC[C@]3(C)C(=CC[C@@H]4[C@@]5(C)CC[C@H](OC(=O)CCn6ccnc6)C(C)(C)[C@@H]5CC[C@]43C)[C@@H]2C1`: the IC50 came to 76.3 µM in the test with BGC-823, 0.22 µM in the test on A549 and 50.5 µM in the test on PC-3 [2]. The inhibition entry in the test on MCF7 [1] was “inactive”.

On to `CC1(C)CC[C@]2(C(=O)OCC(=O)O)CC[C@]3(C)C(=CC[C@@H]4[C@@]5(C)CC[C@H](OC(=O)CCC(=O)NCCS(=O)(=O)O)C(C)(C)[C@@H]5CC[C@]43C)[C@@H]2C1`, for which the IC50 with BGC-823 was 84.5 µM; in the test with MCF7 [1], 51.7 µM; in the test with A549, 268 µM; in the test on PC-3 [2] it was 10.4 µM.

In the case of `CC1(C)CC[C@]2(C(=O)O)CC[C@]3(C)C(=CC[C@@H]4[C@@]5(C)CC[C@H](O)C(C)(C)[C@@H]5CC[C@]43C)[C@@H]2C1` [OLEANOLIC_ACID], the IC50 with BGC-823 was 2.59 µM; in the test on MCF7 [1], 35.4 µM; in the test with A549, 0.39 µM; in the test with PC-3 [2] it was 6.51 µM.

Turning to `CC1(C)CC[C@]2(C(=O)O)CC[C@]3(C)C(=CC[C@@H]4[C@@]5(C)CC[C@H](OC(=O)CCN6CCOCC6)C(C)(C)[C@@H]5CC[C@]43C)[C@@H]2C1`, the IC50 in the test with BGC-823 is 81.9 µM; in the test on MCF7 [1], 718 µM; in the test on A549 it was 728 µM; with PC-3 [2], 6.38 µM.

In the test on MCF7 [1], `COc1cccc2c1C(=O)c1c(O)c3c(c(O)c1C2=O)C[C@@](O)(C(=O)CO)C[C@@H]3O[C@H]1C[C@H](N)[C@H](O)[C@H](C)O1` [DOXORUBICIN] showed a 50% inhibitory concentration (IC50) of 1.65 µM.

In the case of `CC1(C)CC[C@]2(C(=O)O)CC[C@]3(C)C(=CC[C@@H]4[C@@]5(C)CC[C@H](OC(=O)CCC(=O)O)C(C)(C)[C@@H]5CC[C@]43C)[C@@H]2C1` [OLEANOLIC ACID 3-O-SUCCINATE], the half-maximal inhibitory concentration (IC50) came to 5.59 µM with BGC-823, 60.7 µM with MCF7 [1], 6.57 µM in the test on A549 and 7.11 µM in the test with PC-3 [2].

Regarding `CC1(C)CC[C@]2(C(=O)O)CC[C@]3(C)C(=CC[C@@H]4[C@@]5(C)CC[C@H](OC(=O)CN6CCCC6)C(C)(C)[C@@H]5CC[C@]43C)[C@@H]2C1`, the IC50 in the test with BGC-823 is 87.2 µM; in the test on MCF7 [1] it was 12.9 µM; in the test with A549 it was 8.53 µM; with PC-3 [2], 28.3 µM.

For the compound `CC1(C)CC[C@]2(C(=O)O)CC[C@]3(C)C(=CC[C@@H]4[C@@]5(C)CC[C@H](OC(=O)CCN6CCCC6)C(C)(C)[C@@H]5CC[C@]43C)[C@@H]2C1`, the “Ratio IC50” value with MCF7 [3] amounted to 17. Also, the IC50 was determined as 27.2 µM with BGC-823, 1.98 µM in the test with MCF7 [1], 6.12 µM in the test on A549 and 5.45 µM in the test with PC-3 [2].

`CC1(C)CC[C@]2(C(=O)O)CC[C@]3(C)C(=CC[C@@H]4[C@@]5(C)CC[C@H](OC(=O)Cn6ccnc6)C(C)(C)[C@@H]5CC[C@]43C)[C@@H]2C1`: the concentration for half-maximal inhibition (IC50) in the test with BGC-823 amounted to 16.3 µM; in the test on MCF7 [1], 894 µM; with A549 it was 16.9 µM; in the test on PC-3 [2], 57.5 µM.

As to `CC1(C)CC[C@]2(C(=O)O)CC[C@]3(C)C(=CC[C@@H]4[C@@]5(C)CC[C@H](OC(=O)CN6CCOCC6)C(C)(C)[C@@H]5CC[C@]43C)[C@@H]2C1`, the IC50 amounted to 24.5 µM with BGC-823, 14.9 µM with MCF7 [1], 8.27 µM in the test on A549 and 6.29 µM in the test on PC-3 [2].

Regarding `CC1(C)CC[C@]2(C(=O)OCC(=O)O)CC[C@]3(C)C(=CC[C@@H]4[C@@]5(C)CC[C@H](OC(=O)CCC(=O)O)C(C)(C)[C@@H]5CC[C@]43C)[C@@H]2C1`, the IC50 in the test with BGC-823 amounted to 13.4 µM; in the test on MCF7 [1] it was 805 µM; with A549, 11.9 µM; with PC-3 [2] it was 7.72 µM.

`CC1(C)CC[C@]2(C(=O)OCC(=O)O)CC[C@]3(C)C(=CC[C@@H]4[C@@]5(C)CC[C@H](OC(=O)C[C@H](O)C(=O)O)C(C)(C)[C@@H]5CC[C@]43C)[C@@H]2C1`: the IC50 with BGC-823 stood at 9.36 µM; in the test with MCF7 [1], 35.1 µM; in the test on A549, 19.3 µM; in the test on PC-3 [2] it was 8.07 µM.

As for `CC1(C)CC[C@]2(C(=O)O)CC[C@]3(C)C(=CC[C@@H]4[C@@]5(C)CC[C@H](OC(=O)CCC(=O)NCCS(=O)(=O)O)C(C)(C)[C@@H]5CC[C@]43C)[C@@H]2C1`, the IC50 with BGC-823 is 7.32 µM; with MCF7 [1] it was 5.19 µM; in the test with A549 it was 1.31 µM; with PC-3 [2] it was 0.83 µM. Moreover, the “Ratio IC50” value in the test on PC-3 [4] is listed as 17.

For `CC1(C)CC[C@]2(C(=O)O)CC[C@]3(C)C(=CC[C@@H]4[C@@]5(C)CC[C@H](OC(=O)C[C@H](O)C(=O)O)C(C)(C)[C@@H]5CC[C@]43C)[C@@H]2C1`, the figures for the “Ratio IC50” value in the test with PC-3 [5] and in the test with PC-3 [4] were 1.7 and 17, respectively. For the same compound, the IC50 in the test on BGC-823 was 4.18 µM; with MCF7 [1], 16.2 µM; in the test on A549 it was 0.71 µM; with PC-3 [2], 0.39 µM.
